Reference: patent US20240010726A1, “LFA-1 SIGNALLING MEDIATOR FOR USE IN CANCER THERAPY” (Universität Basel, priority 2020, published 2024)

Key:
[1] = system: murine WT and LFA-1^−/− CTLs; test: Glycolytic switch of murine WT and LFA-1−/− CTLs; assay type: cell-based; conditions: anti-CD3/28 Ab; 0 mM vs 1.2 mM Mg^2+
Procedure: FIG. 3: Magnesium regulates LFA-1 mediated T cell activation and cytotoxicity as well BiTE- and CAR T-cell functionality. (a) Glycolytic switch of murine WT and LFA-1^-/- CTLs upon injection of anti-CD3/28 Ab in medium containing 1.2 mM Mg^2+ and 0 mM Mg^2+, presented as quantification of summarized data with n=4 mice. (b) Calcium flux in WT and LFA-1^-/- Jurkat T cells stimulated with anti-CD3 Ab in 1.2 mM and 0 mM Mg^2+ medium, respectively. Cells were loaded with Fluo4, and signal intensity as recorded by plate reader, was normalized to unstimulated baseline values. […] Quantified results of n=3 mice with 3 technical replicates each. […] The effector to target cell ratio was 3:1. Results are quantified of n=3 mice with 3 technical replicates each. (e) Representative CD11a (LFA-1) surface expression on human naïve and EM CD8 T cells, PHA T cell blasts and REP T cells, assessed by flow cytometry. […] The effector to target cell ratio was 1:1. Data is presented as quantified results of n=5 healthy donors (f, g, h), n=3 healthy donors with 2 technical replicates each or n=1 healthy donor with 4 technical replicates (j). […] Data is presented as quantified results of n=1 healthy donor with 4 technical replicates. […] (p) Abundance of IFNγ in cell culture supernatants corresponding to the conditions depicted in (o) at 24 hours was determined by ELISA (n=8, 3 independent experiments). […]

T2 target cells = assay type: cell-based, human
MC38-OVA tumor cells = test: Murine MC38-OVA tumor model, intratumoral MgCl2 vs NaCl in bilateral tumors; assay type: in vivo, mice; conditions: for Tumor growth: 3 mM MgCl2 intratumoral vs 3 mM NaCl in contralateral tumor, every third day
Procedure: FIG. 1: Intratumoral magnesium administration improves adaptive anti-tumor immunity. (a) Schematic of experimental design. B1/6 mice, either immunized with OVA or left untreated, were inoculated subcutaneously with MC38-OVA tumor cells bilaterally on the flanks. From day 7, injection of 3 mM NaCl solution was applied in left flank tumor, whereas 3 mM MgCl2 solution was injected in contralateral tumor. This regimen was repeated every third day for a total of 8 cycles. (b) Tumor growth curves in non-immunized mice (n=20) (left panel), and immunized mice (n=19) (right panel). (c) Tumor growth curves in ±CD8 depleted mice (n=6-17). Results were pooled from 2 independent experiments, with n=6-12 mice each. (d) Absolute numbers of tumor-infiltrating CD8^+ T cells. (e) Number of tumor-infiltrating CD8^+ T cells positive for Ki67 (left panel), Granzyme B (middle panel) and CD25 (right panel). (f) Cell number of tumor-infiltrating CD8^+ T cells expressing PD-1 and Tim3. (g) Schematic of experimental design. B1/6 mice, immunized with OVA, were inoculated subcutaneously with MC38-OVA tumor cells unilaterally on the flank. From day 5, intratumoral injections of either 3 mM NaCl or 3 mM MgCl2 were initiated, and repeated every third day for 8 cycles. Mice were additionally injected with 200 μg i.p. of isotype control (IgG2a) or anti-PD-1 Ab on day 9, 12, and 15. (h) Tumor growth curves (n=13-14) and (i) host survival (n=13-14). Results were pooled from 2 independent experiments (b, h, i). Unless stated otherwise, 6 to 12 weeks old female mice were used for experiments. In assays with pre-immunized mice, mice were immunized 19 days before tumor implantation by subcutaneous injection of 100 μg of OVA protein (Invivogen) and 50 μg of CpG-B ODN 1826 (Eurogentec), resuspended in 100 μL of PBS. For tumor implantation, mice were inoculated subcutaneously onto the flanks with 0.5×10^6 MC38-OVA cells, resuspended in 100 μL of PBS. In bilateral tumor experiments, mice received 50 μL intra-tumoral injections of either 3 mM NaCl or 3 mM MgCl2 (both diluted in ddH2O). Injections of NaCl solution was applied in left flank tumor, whereas MgCl2 solution was injected in contralateral tumor. I.t. injections were initiated once tumors were palpable, usually between day 5 and 10 after tumor injection. Injections were repeated every third day. Tumor size was quantified using a caliper and tumor volume was calculated using a rational ellipse formula (α2×β×π6, α being the shorter axis and β the longer axis). […] Tumor tissue was isolated from mice, weighed and minced using razor blades. Tissue was then digested using accutase (PAA), collagenase IV (Worthington), hyaluronidase (Sigma), and DNAse type IV (Sigma) for 60 min at 37° C. with constant shaking. The cell suspensions were filtered using a cell strainer (70 μm). Precision Counting beads (Biolegend) were added before staining to quantify the number of cells per gram of tumor. Single cell suspensions were blocked with rat anti-mouse FcγIII/II receptor (CD16/CD32) blocking antibodies (‘Fc-block’) and stained with live/dead cell-exclusion dye. Cells were then incubated with fluorophore-conjugated antibodies directed against cell surface antigens, washed and resuspended in FACS buffer (PBS+2% FBS). For intracellular/intranuclear antigens, cells stained with cell surface antibodies were fixed and permeabilized using Foxp3/transcription factor staining buffer (eBioscience) prior to incubation with antibodies directed against intracellular antigens. CD8 T cells are essential for antitumor immunity. To explore the role of Mg^2+ in the tumor microenvironment, and specifically its functional impact on T cell immunity, we examined the effect of intratumoral (i.t.) Mg^2+ administration in the MC38-OVA tumor model. Specifically, mice were either immunized against ovalbumin (OVA) or left untreated before subcutaneous implantation of OVA-expressing MC38 colorectal carcinoma cells bilaterally on the flanks. […]

[Mg+2] [Mg^2+, Magnesium]
Glycolytic switch of LFA-1^−/− CTLs [1]: independent from extracellular Mg^2+ concentrations
Glycolytic switch of WT CTLs [1]: reduced glycolytic switching
Cytotoxicity of REP T cells (caspase-3 activity in T2 target cells) (T2 target cells): significantly increased
Tumor-infiltrating CD8^+ T cells expressing PD-1 and Tim3 (MC38-OVA tumor cells; Mg^2+ treated vs NaCl tumors): significantly more often (co-)expressed
Tumor-infiltrating CD8^+ T cells positive for CD25 (MC38-OVA tumor cells; Mg^2+ treated vs NaCl tumors): more
Tumor-infiltrating CD8^+ T cells positive for Granzyme B (MC38-OVA tumor cells; Mg^2+ treated vs NaCl tumors): more
Tumor-infiltrating CD8^+ T cells positive for Ki67 (MC38-OVA tumor cells; Mg^2+ treated vs NaCl tumors): more
Number of tumor-infiltrating CD8^+ T cells (MC38-OVA tumor cells; Mg^2+ treated vs NaCl tumors, flow cytometry): increased
Tumor growth (MC38-OVA tumor cells; OVA pre-immunized mice): significantly reduced tumor growth
Tumor growth (MC38-OVA tumor cells; non-immunized mice): comparable
